For one test, the system named is Puccinia recondite. As to the kind of experiment: Penetration and translocation in wheat leaves (covered leaf tip, brown rust). The format is in vivo. The following applies: conc. of active ingredient 100 ppm.
The next test concerns Erysiphe graminis. Kind of test: Effects on Barley powdery mildew (preventive spray test). The following applies: lesions counted seven days after inoculation. The format is in vivo.
The test system of the next test is Phytophthora infestans. In kind it is in vivo. The following applies: Tomato late blight, 5 days after inoculation.
The test system of test [1] is Psecidoperonospora cubensis. As to the kind of experiment: Effect on Cucumber downy mildew (preventive spray test). Conditions: 7 days after inoculation. The format is in vivo.
Another test relates to Chochliobolus miyabeanus. Kind of test: Effect on Rice brown spot (preventive spray test). The format is in vivo. Conditions: 7 days after inoculation.
In a further test the test system is Botrytis cinerea. As to the kind of experiment: Effect on Cucumber gray mold (cotyledon paper disc test). The format is in vivo. Conditions: 3 days after inoculation.
The test system of another test is Rhizoctonia solani. Kind of test: Effect on Rice sheath blight (preventive spray test). The following applies: 10 days after inoculation.
For a further test, the system named is Puccinia recondita. As to the kind of experiment: Effect on Wheat brown rust (preventive spray test). The format is in vivo. The following applies: 7 days after inoculation.
For a further test, the system named is Pyricularia oryzae. In kind it is in vivo. Conditions: Rice blast, 7 days after inoculation.
Setting [2] is: conc. of active ingredient 4 ppm.
The mark [3] stands for this setting: conc. of active ingredient 20 ppm.
Setting [4] is: conc. of active ingredient 100 ppm.

The values that follow come from patent US6399542B1, “Alkoxyimino-substituted bicyclic compounds compositions containing the same and method of making such compounds” (Agro-Kanesho Co., Ltd., priority 1997, dated 2002).

Read-outs that look alike come from different tables or passages of the source.

Procedure for Rhizoctonia solani: An emulsion of a compound of the present invention prepared in Preparation Example 2 was diluted with water and uniformly sprayed on 5 rice plant seedlings (variety: Koshihikari) in 4.5-leaf stage in each plastic pot having a diameter of 6 cm, with a spray gun. One day after the spraying, the seedlings were bundled at the second sheath with a string. Colonies of Rhizoctonia solani previously cultured in PSA culture medium were bored with a cork borer to obtain pieces having a diameter of 4 mm. The piece was put in the bundle, and kept in a high-humidity room at 25° C. until the examination. Ten days after the inoculation, the degree of the disease was examined, and the preventive rate (effect of inhibiting the disease) was calculated on the basis of the following standard:
Preventive rate=[1-D′/C′]×100
C′: Severity in untreated section
D′: Severity in treated section.

Regarding `CON=C(C(=O)OC)c1ccccc1COc1ccc2c(c1C)OC(C)CC2=NOC` (racemic) [d-10], in the test on Puccinia recondite, the “Number of lesions formed within the mark to the tip” value (from here on “Number”) is listed as 0, the “Preventive rate (%)” value worked out at 100% and the “Rate of the translocation perfect preventive conc. (%)” value is reported as 100%.

As for `COC=C(C(=O)OC)c1ccccc1COc1ccc2c(c1C)OCC2=NOC` [a-13], the “Preventive rate (%)” value in the test with Erysiphe graminis (setting [2]) turned out to be 100%; with Erysiphe graminis (setting [3]), 100%; with Erysiphe graminis (setting [4]), 100%; in the test with Phytophthora infestans (setting [3]) it was 100%; with Phytophthora infestans (setting [4]) it was 100%; in [1] (setting [3]) it was 96%. Further, the “Preventive rate (%)” value was 100% in [1] (setting [4]); 88% in the test on Chochliobolus miyabeanus (setting [3]); 96% in the test on Chochliobolus miyabeanus (setting [4]); 96% with Botrytis cinerea (setting [3]); 100% in the test with Botrytis cinerea (setting [4]); 97% in the test with Rhizoctonia solani (setting [3]). Moreover, the “Preventive rate (%)” value in the test with Rhizoctonia solani (setting [4]) worked out at 97%.

Turning to `C=CCON=C1COc2c1ccc(OCc1ccccc1/C(=N\OC)C(=O)OC)c2C` [a-59], the “Preventive rate (%)” value with Erysiphe graminis (setting [3]) came to 92%; in the test on Erysiphe graminis (setting [4]) it was 100%; in the test with Puccinia recondita (setting [2]), 90%; in the test on Puccinia recondita (setting [3]), 98%; with Puccinia recondita (setting [4]), 100%; in the test with Botrytis cinerea (setting [3]), 73%. For the same molecule, the results for the “Preventive rate (%)” value in the test on Botrytis cinerea (setting [4]), in the test on Rhizoctonia solani (setting [3]) and in the test with Rhizoctonia solani (setting [4]) were 76%, 60% and 72%, respectively.

For `CO/N=C(/C(=O)OC)c1ccccc1COc1ccc2c(c1C)OCC2=NOC/C=C/Cl` [a-61], the “Preventive rate (%)” value in the test with Erysiphe graminis (setting [2]) was 99%; in the test with Erysiphe graminis (setting [3]), 100%; with Erysiphe graminis (setting [4]) it was 100%; in the test on Puccinia recondita (setting [2]), 91%; in the test with Puccinia recondita (setting [3]) it was 100%; in the test on Puccinia recondita (setting [4]), 100%. Moreover, the “Preventive rate (%)” value is 89% in the test on Phytophthora infestans (setting [3]); 91% in the test on Phytophthora infestans (setting [4]); 49% in the test with Chochliobolus miyabeanus (setting [2]); 72% in the test with Chochliobolus miyabeanus (setting [3]); 91% in the test on Chochliobolus miyabeanus (setting [4]); 91% in the test with Botrytis cinerea (setting [3]). For the same molecule, the “Preventive rate (%)” value in the test with Botrytis cinerea (setting [4]) is listed as 85%; in the test on Rhizoctonia solani (setting [3]), 60%; with Rhizoctonia solani (setting [4]), 96%.

In the case of `CNC(=O)/C(=N/OC)c1ccccc1COc1ccc2c(c1C)OCC2=NOC/C=C/Cl` [a-62], the “Preventive rate (%)” value amounted to 98% in the test on Erysiphe graminis (setting [2]); 100% in the test with Erysiphe graminis (setting [3]); 100% with Erysiphe graminis (setting [4]); 100% in the test with Puccinia recondita (setting [2]); 100% in the test on Puccinia recondita (setting [3]); 100% in the test with Puccinia recondita (setting [4]). For the same molecule, the “Preventive rate (%)” value stood at 97% in the test on Phytophthora infestans (setting [3]); 98% in the test with Phytophthora infestans (setting [4]); 94% in test [1] (setting [2]); 100% in test [1] (setting [3]); 100% in test [1] (setting [4]); 83% in the test with Chochliobolus miyabeanus (setting [3]). Moreover, the “Preventive rate (%)” value with Chochliobolus miyabeanus (setting [4]) was found to be 88%; in the test with Botrytis cinerea (setting [3]), 96%; in the test on Botrytis cinerea (setting [4]) it was 100%; with Rhizoctonia solani (setting [3]), 91%; with Rhizoctonia solani (setting [4]), 98%.

For `C#CCON=C1COc2c1ccc(OCc1ccccc1/C(=N\OC)C(=O)OC)c2C` [a-70], the “Preventive rate (%)” value was found to be 100% in the test with Erysiphe graminis (setting [3]); 100% with Erysiphe graminis (setting [4]); 99% in the test on Puccinia recondita (setting [2]); 100% in the test on Puccinia recondita (setting [3]); 100% in the test on Puccinia recondita (setting [4]); 95% in the test on Phytophthora infestans (setting [3]). The “Preventive rate (%)” value in the test on Phytophthora infestans (setting [4]) is 95%; in test [1] (setting [3]), 88%; in test [1] (setting [4]), 91%; in the test with Botrytis cinerea (setting [3]), 53%; with Botrytis cinerea (setting [4]), 85%; in the test with Rhizoctonia solani (setting [3]) it was 80%. Moreover, the “Preventive rate (%)” value in the test on Rhizoctonia solani (setting [4]) is given as 90%.

Take `CNC(=O)/C(=N/OC)c1ccccc1COc1ccc2c(c1C)OC(C)C2=NOC` (stereo not drawn) [b-7]: the “Preventive rate (%)” value with Erysiphe graminis (setting [2]) worked out at 99%; in the test with Erysiphe graminis (setting [3]), 100%; with Erysiphe graminis (setting [4]), 100%; with Puccinia recondita (setting [2]), 99%; with Puccinia recondita (setting [3]) it was 100%; with Puccinia recondita (setting [4]), 100%. Also, the “Preventive rate (%)” value in the test on Phytophthora infestans (setting [3]) is reported as 95%; in the test on Phytophthora infestans (setting [4]) it was 100%; in [1] (setting [2]) it was 89%; in test [1] (setting [3]) it was 93%; in [1] (setting [4]) it was 96%; with Pyricularia oryzae (setting [3]), 89%. Moreover, the “Preventive rate (%)” value is recorded as 100% in the test on Pyricularia oryzae (setting [4]); 56% with Chochliobolus miyabeanus (setting [2]); 95% in the test with Chochliobolus miyabeanus (setting [3]); 96% in the test on Chochliobolus miyabeanus (setting [4]); 86% in the test on Rhizoctonia solani (setting [3]); 98% in the test with Rhizoctonia solani (setting [4]).

As for `CON=C(C(=O)OC)c1ccccc1COc1ccc2c(c1)OCCC2=NOC` [c-4], the “Preventive rate (%)” value in the test on Puccinia recondita (setting [4]) stood at 100%; in the test on Phytophthora infestans (setting [3]), 97%; with Phytophthora infestans (setting [4]), 97%; in [1] (setting [3]), 94%; in test [1] (setting [4]), 100%; in the test on Pyricularia oryzae (setting [3]), 86%. In addition, the “Preventive rate (%)” value amounted to 90% in the test with Pyricularia oryzae (setting [4]); 80% with Chochliobolus miyabeanus (setting [3]); 80% with Chochliobolus miyabeanus (setting [4]); 53% in the test on Rhizoctonia solani (setting [3]); 98% in the test on Rhizoctonia solani (setting [4]).

As for `CNC(=O)C(=NOC)c1ccccc1COc1cc2c(cc1C)C(=NOC)CCO2` [c-27], the “Preventive rate (%)” value is 100% with Erysiphe graminis (setting [2]); 100% in the test on Erysiphe graminis (setting [3]); 100% with Erysiphe graminis (setting [4]); 96% in the test with Puccinia recondita (setting [2]); 100% with Puccinia recondita (setting [3]); 100% in the test on Puccinia recondita (setting [4]). Also, the “Preventive rate (%)” value worked out at 98% in the test on Phytophthora infestans (setting [3]); 100% in the test on Phytophthora infestans (setting [4]); 86% in test [1] (setting [2]); 93% in [1] (setting [3]); 96% in [1] (setting [4]); 95% with Pyricularia oryzae (setting [3]). Besides, the “Preventive rate (%)” value with Pyricularia oryzae (setting [4]) worked out at 100%; in the test with Rhizoctonia solani (setting [3]) it was 93%; in the test on Rhizoctonia solani (setting [4]), 94%.

As to `CNC(=O)C(=NOC)c1ccccc1COc1ccc2c(c1C)CCC2=NOC` [e-16], the “Preventive rate (%)” value in the test on Erysiphe graminis (setting [2]), in the test on Erysiphe graminis (setting [3]), in the test with Erysiphe graminis (setting [4]), in the test with Puccinia recondita (setting [3]), in the test on Puccinia recondita (setting [4]) and with Phytophthora infestans (setting [3]) was 100% throughout. In addition, the “Preventive rate (%)” value (in the test with Phytophthora infestans (setting [4]); in [1] (setting [3]); in test [1] (setting [4]); in the test with Puccinia recondite) was 100% throughout. Moreover, the “Number” value with Puccinia recondite is listed as 0. The “Rate of the translocation perfect preventive conc. (%)” value with Puccinia recondite is 100%.

As for `CNC(=O)C(=NOC)c1ccccc1COc1cc(C)c2c(c1C)CCC2=NOC` [e-23], the “Preventive rate (%)” value with Erysiphe graminis (setting [2]), with Erysiphe graminis (setting [3]), in the test on Erysiphe graminis (setting [4]), with Puccinia recondita (setting [3]), with Puccinia recondita (setting [4]) and in the test on Phytophthora infestans (setting [3]) was 100% each time. Further, the “Preventive rate (%)” value in the test on Phytophthora infestans (setting [4]) amounted to 100%; in [1] (setting [3]) it was 96%; in [1] (setting [4]), 100%; in the test on Chochliobolus miyabeanus (setting [3]), 98%; with Chochliobolus miyabeanus (setting [4]), 98%; in the test with Botrytis cinerea (setting [3]) it was 86%. In addition, the “Preventive rate (%)” value stood at 96% in the test on Botrytis cinerea (setting [4]), 64% in the test with Rhizoctonia solani (setting [3]) and 69% in the test on Rhizoctonia solani (setting [4]).

On to `CNC(=O)C(=NOC)c1ccccc1COc1cc2c(cc1C)C(=NOC)CC2` [e-27], for which the “Preventive rate (%)” value with Erysiphe graminis (setting [2]) is on record as 99%; in the test on Erysiphe graminis (setting [3]) it was 99%; in the test on Erysiphe graminis (setting [4]) it was 100%; in the test on Puccinia recondita (setting [2]), 100%; in the test on Puccinia recondita (setting [3]) it was 100%; in the test with Puccinia recondita (setting [4]) it was 100%. Besides, the “Preventive rate (%)” value (with Phytophthora infestans (setting [2]); in the test with Phytophthora infestans (setting [3]); in the test on Phytophthora infestans (setting [4]); in test [1] (setting [2]); in [1] (setting [3]); in [1] (setting [4])) was 100% throughout. Further, the “Preventive rate (%)” value with Chochliobolus miyabeanus (setting [2]) is 96%; in the test with Chochliobolus miyabeanus (setting [3]) it was 99%; in the test with Chochliobolus miyabeanus (setting [4]), 99%; with Puccinia recondite it was 100%. In the test on Puccinia recondite, the “Number” value turned out to be 0. The “Rate of the translocation perfect preventive conc. (%)” value in the test with Puccinia recondite was 100%.
